We go through twelve compounds from US20230373985A1 (Origenis Gmbh, priority 2020, published 2023).

A value given as a limit tells only on which side of the number the result lay.

Assay [1] has as its target T1, G2019S human LRRK2, catalytic site (Homo sapiens, UniProt Q5S007, G2019S).
T1 construct: G2019S human LRRK2, catalytic site; purchased ThermoFisher
Description: TR-FRET LanthaScreen Eu Kinase Binding Assay, LRRK2 G2019S. To be noted: LRRK2(G2019); one range stated for wt and G2019; read-out: IC50, Activity Toward LRRK2(G2019). The gist of the method:
(§1)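 Kinase Buffer A holding, as final levels, 8 nM full-length NUAK1, 2 nM Eu-anti-His antibody and 5 nM Tracer 236, or 5 nM LRRK2 catalytic site (wt or G2019S), 2 nM Eu-anti-GST and 10 nM Tracer 236. Compound added, then 1 h at room temperature before TR-FRET ratio readout.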
Background: Time-resolved FRET reads energy transfer from a long-lived donor to a nearby acceptor.

Assay [2] has as its target T2, wt human TYK2, catalytic site (Homo sapiens, UniProt P29597).
T2 construct: wt human TYK2, catalytic site; purchased SignalChem
T2 sequence (P29597 897-1176 limits assumed): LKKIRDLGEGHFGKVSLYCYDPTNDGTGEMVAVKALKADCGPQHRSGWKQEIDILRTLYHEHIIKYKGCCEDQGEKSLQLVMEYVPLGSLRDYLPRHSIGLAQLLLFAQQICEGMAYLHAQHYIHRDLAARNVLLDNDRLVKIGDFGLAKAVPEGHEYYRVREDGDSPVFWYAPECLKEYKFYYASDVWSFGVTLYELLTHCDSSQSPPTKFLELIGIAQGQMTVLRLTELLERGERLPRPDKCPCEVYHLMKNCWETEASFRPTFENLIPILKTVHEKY
Description: HTRF KinEASE assay, TYK2. It counts as biochemical. To be noted: 1 μM ATP; read-out: IC50, Activity Toward TYK2. Summed up:
(§2)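 Kinase reaction run at room temperature for at least 30 min: 2 nM TYK2 with 1 μM ATP, or 1 nM JAK2 with 100 μM ATP, each with 1 μM biotin-TK substrate. Phosphorylation detected by HTRF (60 min antibody/XL665) and evaluated from emission ratios.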

The target of assay [3] is T3, wt human LRRK2, catalytic site (Homo sapiens, UniProt Q5S007).
T3 construct: 5 nM wt human LRRK2, catalytic site; purchased ThermoFisher
Description: TR-FRET LanthaScreen Eu Kinase Binding Assay, LRRK2 wt. The conditions noted are these: one range stated for wt and G2019, read-out: IC50, Activity Toward LRRK2(Wt). The gist of the method:
as §1

The target in assay [4] is T4, wt human NUAK1, full length (Homo sapiens, UniProt O60285).
T4 construct: 8 nM wt human NUAK1, full length (ThermoFisher/USA); purchased ThermoFisher
T4 sequence (O60285 1-661): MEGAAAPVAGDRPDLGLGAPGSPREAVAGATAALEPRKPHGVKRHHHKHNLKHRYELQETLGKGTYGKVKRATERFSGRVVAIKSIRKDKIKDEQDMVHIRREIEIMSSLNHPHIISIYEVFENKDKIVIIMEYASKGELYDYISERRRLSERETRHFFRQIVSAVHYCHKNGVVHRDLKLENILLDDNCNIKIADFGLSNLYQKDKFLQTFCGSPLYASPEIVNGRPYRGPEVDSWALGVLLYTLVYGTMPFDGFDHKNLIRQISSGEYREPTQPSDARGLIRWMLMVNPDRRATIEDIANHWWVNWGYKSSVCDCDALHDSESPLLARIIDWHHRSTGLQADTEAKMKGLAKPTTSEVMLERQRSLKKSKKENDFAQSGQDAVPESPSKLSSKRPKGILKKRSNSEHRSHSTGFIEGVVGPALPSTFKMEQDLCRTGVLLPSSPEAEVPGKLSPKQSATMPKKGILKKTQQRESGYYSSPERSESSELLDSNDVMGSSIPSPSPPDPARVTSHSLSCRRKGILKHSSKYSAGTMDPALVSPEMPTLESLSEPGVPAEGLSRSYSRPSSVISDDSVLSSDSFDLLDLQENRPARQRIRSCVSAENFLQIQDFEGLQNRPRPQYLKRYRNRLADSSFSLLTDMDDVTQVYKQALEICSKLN
Description: TR-FRET LanthaScreen Eu Kinase Binding Assay, NUAK1. To be noted: read-out: IC50, Activity Toward NUAK1. Summed up: as §1

The target of assay [5] is T5, wt human JAK1, catalytic site (Homo sapiens, UniProt P23458).
T5 construct: wt human JAK1, catalytic site; purchased ThermoFisher
Briefly: HTRF KinEASE assay, JAK1. The format is biochemical. To be noted: 2.5 μM ATP; read-out: IC50, Activity Toward JAK1. The gist of the method:
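Compounds in DMSO dilution were mixed with kinase, biotin-TK substrate and ATP and reacted for ≥30 min at room temperature. Detection reagents (antibody, streptavidin-XL665) were read 60 min later as HTRF, with emission ratios analysed per KinEASE protocol.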

Assay [6] addresses T6, wt human JAK2, catalytic site (Homo sapiens, UniProt O60674).
T6 construct: wt human JAK2, catalytic site; purchased SignalChem
Briefly: HTRF KinEASE assay, JAK2. The format is biochemical. To be noted: assay format not given (Z'-LYTE or HTRF KinEASE); read-out: IC50, Activity Toward JAK2. The gist of the method: as §2

T3 sequence (Q5S007 970-2527 limits assumed): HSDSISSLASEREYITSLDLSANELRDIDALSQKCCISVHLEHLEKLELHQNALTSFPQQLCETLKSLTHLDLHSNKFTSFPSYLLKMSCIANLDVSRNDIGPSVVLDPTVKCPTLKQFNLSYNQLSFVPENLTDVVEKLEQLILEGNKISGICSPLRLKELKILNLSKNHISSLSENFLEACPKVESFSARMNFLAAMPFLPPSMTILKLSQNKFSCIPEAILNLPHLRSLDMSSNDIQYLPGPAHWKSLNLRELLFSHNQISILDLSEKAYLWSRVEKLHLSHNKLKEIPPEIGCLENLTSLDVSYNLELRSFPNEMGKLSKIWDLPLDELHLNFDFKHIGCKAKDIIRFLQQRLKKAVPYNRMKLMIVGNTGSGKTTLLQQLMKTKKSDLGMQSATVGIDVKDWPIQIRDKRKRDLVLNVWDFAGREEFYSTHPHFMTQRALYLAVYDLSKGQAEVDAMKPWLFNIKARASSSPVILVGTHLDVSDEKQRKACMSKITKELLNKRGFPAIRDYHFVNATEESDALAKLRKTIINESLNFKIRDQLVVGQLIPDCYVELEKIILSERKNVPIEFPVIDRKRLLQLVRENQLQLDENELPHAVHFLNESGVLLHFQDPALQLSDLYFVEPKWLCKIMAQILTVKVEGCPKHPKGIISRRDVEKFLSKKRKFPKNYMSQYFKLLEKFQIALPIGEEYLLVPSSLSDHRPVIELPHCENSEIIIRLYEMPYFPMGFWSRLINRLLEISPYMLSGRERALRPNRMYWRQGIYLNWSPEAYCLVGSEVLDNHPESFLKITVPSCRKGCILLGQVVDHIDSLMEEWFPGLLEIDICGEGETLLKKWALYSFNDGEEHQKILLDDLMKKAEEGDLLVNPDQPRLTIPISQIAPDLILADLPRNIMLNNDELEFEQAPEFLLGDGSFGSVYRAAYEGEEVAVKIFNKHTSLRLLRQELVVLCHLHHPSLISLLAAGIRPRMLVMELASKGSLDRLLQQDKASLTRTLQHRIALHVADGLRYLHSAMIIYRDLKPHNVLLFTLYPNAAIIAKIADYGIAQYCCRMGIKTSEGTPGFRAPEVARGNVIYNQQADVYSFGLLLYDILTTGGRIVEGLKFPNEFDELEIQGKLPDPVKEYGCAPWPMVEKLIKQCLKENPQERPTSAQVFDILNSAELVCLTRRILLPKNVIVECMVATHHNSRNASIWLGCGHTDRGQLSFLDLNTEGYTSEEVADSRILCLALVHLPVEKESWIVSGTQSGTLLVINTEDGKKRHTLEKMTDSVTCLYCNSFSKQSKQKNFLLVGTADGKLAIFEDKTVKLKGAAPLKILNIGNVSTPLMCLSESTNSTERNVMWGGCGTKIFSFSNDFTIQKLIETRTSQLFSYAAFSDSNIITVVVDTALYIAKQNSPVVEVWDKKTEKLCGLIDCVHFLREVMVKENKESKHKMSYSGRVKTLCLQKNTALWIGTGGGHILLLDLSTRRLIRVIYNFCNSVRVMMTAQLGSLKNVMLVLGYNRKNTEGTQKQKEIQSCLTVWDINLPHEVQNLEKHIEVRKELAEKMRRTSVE
T1 sequence (Q5S007 970-2527 G2019S limits assumed): as the sequence (Q5S007 970-2527 limits assumed) above, with G1050S counted along it
T5 sequence (P23458 875-1153 limits assumed): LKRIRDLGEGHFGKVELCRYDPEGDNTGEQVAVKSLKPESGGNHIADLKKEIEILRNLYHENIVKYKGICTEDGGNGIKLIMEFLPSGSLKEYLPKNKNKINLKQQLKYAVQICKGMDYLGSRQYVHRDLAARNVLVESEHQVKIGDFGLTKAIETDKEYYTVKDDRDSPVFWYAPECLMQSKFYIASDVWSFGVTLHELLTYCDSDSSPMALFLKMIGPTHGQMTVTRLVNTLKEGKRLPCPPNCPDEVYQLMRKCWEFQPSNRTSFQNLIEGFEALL
T6 sequence (O60674 849-1124 limits assumed): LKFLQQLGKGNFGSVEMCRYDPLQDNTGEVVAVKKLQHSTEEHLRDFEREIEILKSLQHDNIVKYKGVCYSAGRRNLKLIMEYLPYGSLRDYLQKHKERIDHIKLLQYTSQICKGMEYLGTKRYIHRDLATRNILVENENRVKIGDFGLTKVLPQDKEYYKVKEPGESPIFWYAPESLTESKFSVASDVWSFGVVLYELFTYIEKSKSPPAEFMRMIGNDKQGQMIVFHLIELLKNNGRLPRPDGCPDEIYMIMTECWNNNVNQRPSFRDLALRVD

On to `CCn1ccnc1-c1ccc(Nc2cn(-c3c(Cl)cccc3Cl)nc2C(N)=O)cc1` [compound 229, 1-(2,6-dichlorophenyl)-4-((4-(1-ethyl-1H-imidazol-2-yl)phenyl)amino)-1H-pyrazole-3-carboxamide], for which the IC50 – broadly, the concentration needed to halve the response being measured – in assay [1] is 100 to 1000 nM; in assay [2], 10 to 100 nM; in assay [3], 100 to 1000 nM; in assay [4], 100 to 1000 nM; in assay [5] it was less than 10 nM; in assay [6], 100 to 1000 nM.

`NC(=O)c1nn(-c2c(F)cccc2F)cc1Nc1ccc(C(=O)N2CCOCC2)cc1` [compound 12, 1-(2,6-difluorophenyl)-4-((4-(morpholine-4-carbonyl)phenyl)amino)-1H-pyrazole-3-carboxamide]: the IC50 in assay [1] fell in the range of 10 to 100 nM; in assay [2], 10 to 100 nM; in assay [3], 10 to 100 nM; in assay [4] it was 100 to 1000 nM; in assay [5] it was 100 to 1000 nM; in assay [6], 100 to 1000 nM.

Regarding `CCn1cnnc1-c1ccc(Nc2cn(-c3c(Cl)cccc3Cl)nc2C(N)=O)cc1` [compound 87, 1-(2,6-dichlorophenyl)-4-((4-(4-ethyl-4H-1,2,4-triazol-3-yl)phenyl)amino)-1H-pyrazole-3-carboxamide], the IC50 in assay [1] was 100 to 1000 nM; in assay [2], less than 10 nM; in assay [3], 100 to 1000 nM; in assay [4], 100 to 1000 nM; in assay [5], 10 to 100 nM; in assay [6], 100 to 1000 nM.

As for `NC(=O)c1nn(-c2c(F)cccc2Cl)cc1Nc1ccc(-c2nnc3n2CCCC3)cc1` [compound 58, 1-(2-chloro-6-fluorophenyl)-4-((4-(5,6,7,8-tetrahydro-[1,2,4]triazolo[4,3-a]pyridin-3-yl)phenyl)amino)-1H-pyrazole-3-carboxamide], the IC50 in assay [1] is 10 to 100 nM; in assay [2], less than 10 nM; in assay [3], 10 to 100 nM; in assay [4], 100 to 1000 nM; in assay [5], 10 to 100 nM; in assay [6], 100 to 1000 nM.

On to `NC(=O)c1nn(-c2c(F)cccc2Cl)cc1Nc1ccc(-c2nnc3n2CCOC3)cc1` [compound 62, 1-(2-chloro-6-fluorophenyl)-4-((4-(6,8-dihydro-5H-[1,2,4]triazolo[3,4-c][1,4]oxazin-3-yl)phenyl)amino)-1H-pyrazole-3-carboxamide], for which the half-maximal inhibitory concentration (IC50) is 10 to 100 nM in assay [1]; less than 10 nM in assay [2]; 10 to 100 nM in assay [3]; 100 to 1000 nM in assay [4]; 100 to 1000 nM in assay [5]; 100 to 1000 nM in assay [6].

Consider `NC(=O)c1nn(-c2c(F)cccc2Cl)cc1Nc1ccc(C(=O)N2CCCC2)cc1` [compound 227, 1-(2-chloro-6-fluorophenyl)-4-((4-(pyrrolidine-1-carbonyl)phenyl)amino)-1H-pyrazole-3-carboxamide], for which the IC50 in assay [1] is 100 to 1000 nM; in assay [2], less than 10 nM; in assay [3] it was 100 to 1000 nM; in assay [4], 10 to 100 nM; in assay [5], 10 to 100 nM; in assay [6], 100 to 1000 nM.

Regarding `N#Cc1cccc(F)c1-n1cc(Nc2ccc(C(=O)N3CCOCC3)cc2)c(C(N)=O)n1` [compound 454, 1-(2-cyano-6-fluorophenyl)-4-((4-(morpholine-4-carbonyl)phenyl)amino)-1H-pyrazole-3-carboxamide], the concentration for half-maximal inhibition (IC50) in assay [1] is 100 to 1000 nM; in assay [2], less than 10 nM; in assay [3], 100 to 1000 nM; in assay [4], 100 to 1000 nM; in assay [5], 10 to 100 nM; in assay [6], 100 to 1000 nM.

For `NC(=O)c1nn(-c2c(Cl)cccc2Cl)cc1Nc1ccc(-c2nncn2C2CCCC2)cc1` [compound 202, 4-((4-(4-cyclopentyl-4H-1,2,4-triazol-3-yl)phenyl)amino)-1-(2,6-dichlorophenyl)-1H-pyrazole-3-carboxamide], the IC50 was in the range of 100 to 1000 nM in assay [1]; 10 to 100 nM in assay [2]; 100 to 1000 nM in assay [3]; 100 to 1000 nM in assay [4]; 100 to 1000 nM in assay [5]; 100 to 1000 nM in assay [6].

With `CC(C)n1cnnc1-c1ccc(Nc2cn(-c3c(Cl)cccc3Cl)nc2C(N)=O)cc1` [compound 205, 1-(2,6-dichlorophenyl)-4-((4-(4-isopropyl-4H-1,2,4-triazol-3-yl)phenyl)amino)-1H-pyrazole-3-carboxamide], the IC50 is 100 to 1000 nM in assay [1]; 10 to 100 nM in assay [2]; 100 to 1000 nM in assay [3]; 100 to 1000 nM in assay [4]; 10 to 100 nM in assay [5]; 100 to 1000 nM in assay [6].

In the case of `CC(C)n1ncnc1-c1ccc(Nc2cn(-c3c(F)cccc3Cl)nc2C(N)=O)cc1` [compound 211, 1-(2-chloro-6-fluorophenyl)-4-((4-(1-isopropyl-1H-1,2,4-triazol-5-yl)phenyl)amino)-1H-pyrazole-3-carboxamide], the IC50 was in the range of 10 to 100 nM in assay [1]; 10 to 100 nM in assay [2]; 10 to 100 nM in assay [3]; 100 to 1000 nM in assay [4]; 100 to 1000 nM in assay [5]; 100 to 1000 nM in assay [6].

Consider `NC(=O)c1nn(-c2c(Cl)ccc(F)c2Cl)cc1Nc1ccc(C(=O)N2CCOCC2)cc1` [compound 416, 1-(2,6-dichloro-3-fluorophenyl)-4-((4-(morpholine-4-carbonyl)phenyl)amino)-1H-pyrazole-3-carboxamide], for which the IC50 is 100 to 1000 nM in assay [1]; less than 10 nM in assay [2]; 100 to 1000 nM in assay [3]; 100 to 1000 nM in assay [4]; 10 to 100 nM in assay [5]; 100 to 1000 nM in assay [6].

Turning to `NC(=O)c1nn(-c2c(Cl)cccc2Cl)cc1Nc1ccc(-c2nnc3ccccn23)cc1` [compound 333, 4-((4-([1,2,4]triazolo[4,3-a]pyridin-3-yl)phenyl)amino)-1-(2,6-dichlorophenyl)-1H-pyrazole-3-carboxamide], the IC50 in assay [1] was 100 to 1000 nM; in assay [2], less than 10 nM; in assay [3], 100 to 1000 nM; in assay [4], 100 to 1000 nM; in assay [5] it was 10 to 100 nM; in assay [6], 100 to 1000 nM.
